Assays:
Staphylococcus aureus = experiment: zone of inhibition test of triclosan-coated stainless steel coupon on agar plate; assay type: cell-based; settings: triclosan coating on 0.5" polished 316 stainless steel coupon; incubated at 38° C. for 24 hours; inoculum of 10^5 bacteria per cubic centimeter; 80 mm diameter plate
Source text: A filter paper disk, or other object, impregnated with a particular antimicrobial agent is applied to an agar medium that is inoculated with the test organism. Where the anti-microbial agent diffuses through the medium, and as long as the concentration of the antimicrobial agent is above the MIC, none of the susceptible organism will grow on or around the disk for some distance. This distance is called a zone of inhibition. […] The diameter of the zone of inhibition is inversely proportional to the MIC.
A triclosan coating was applied to a 0.5″ polished 316 stainless steel coupon using the device described in FIGS. 1 and 2 according to the cycle described in FIG. 10. The stainless steel coupon was then incubated at 38° C. for 24 hours on an agar plate containing an initial Staphylococcus aureus inoculum of 10^5 bacteria per cubic centimeter of solution.

S. aureus = settings: measured in a suitable growth medium; Bhargava, H. et al, American Journal of Infection Control, June 1996; cited from earlier work

Oc1cc(Cl)ccc1Oc1ccc(Cl)cc1Cl [triclosan, 2,4,4′-trichloro-2′-hydroxydiphenyl ether]
zone of inhibition (Staphylococcus aureus): approximately 40 mm
minimum inhibitory concentration (MIC) against S. aureus (S. aureus): 0.01 ppm

From US11717598B2, “Operating room coating applicator and method” (Ethicon, Inc., priority 2018, dated 2023)
